Experiments:
[1] = tested on: TNF-α; experiment: ELISA of TNF-α in colon tissue, DSS-induced colitis; assay type: in vivo, C57BL/6 mice; details: compared with the DSS treatment group
Protocol: (§1) Colon levels of cytokines are assayed using commercially available ELISA kits. Briefly, colon samples are homogenized in phosphate buffer containing 0.05% Tween-20, 0.1 mM phenylmethylsulfonyl fluoride, 0.1 mM benzethonium chloride, 10 mM EDTA, and 20 IU aprotinin A. The homogenates are centrifuged at 16000 g at 4° C. for 15 min, and the supernatants are collected for the determination of levels of the cytokines, IL-6, IL-4, TNF-α, and IFN-γ, according to the manufacturer's protocols. The amount of protein in each sample is measured by the Bradford method, using bovine serum albumin as a standard. The levels of each cytokine are evaluated in each sample and expressed in […].
(§2) Colitis is induced in all groups except the control group. Pd-Ib and sulfasalazine are administered to mice from day 6 to day 12. On day 13, the mice are sacrificed, Data are expressed as mean±SEM, n=8 (*p<0.05, **p<0.01, ***p<0.001, compared with DSS model group).

[2] = tested on: IL-6; experiment: ELISA of IL-6 in colon tissue, DSS-induced colitis; assay type: in vivo, C57BL/6 mice; details: compared with the DSS treatment group
Protocol: as §1, §2

[3] = tested on: COX-2; experiment: Western blot of COX-2 protein in LPS-stimulated RAW-Blue cells; assay type: cell-based, murine; details: LPS 1 μg/mL, 5, 10, 20 μg/mL, 20 h
Protocol: Data are derived from three independent experiments and presented as mean±SEM. ^#Compared with control group. *P<0.05, **P<0.01 and ***P<0.001 are compared with LPS-alone group.
After Raw-Blue cells are treated with LPS and Pd-Ib, whole cell extract is prepared with lysis buffer [1% Triton X-100, 0.1% SDS, 0.5% deoxycholate, 1 mM EDTA, 20 mM Tris (pH 7.4), 150 mM NaCl, 10 mM NaF, 1 mM Na3VO4, 0.1 mM phenylmethylsulfonyl fluoride and one protease inhibitor cocktail tablet (Roche, USA)]. Total protein concentration is measured using a protein assay kit, followed by centrifugation at 13,500 rpm for 15 minutes at 4° C., then 10-25 μg of protein from the supernatants is then separated on 10% sodium dodecylsulphate-polyacrylamide gel (SDS-PAGE) and transferred on to polyvinylidene difluoride membranes. After blocking with 5% skim milk powder in Tris-buffered saline-Tween (TBST; 50 mM Tris, 150 mM NaCl, pH 7.4; 0.01% Tween-20) for 1 hour at room temperature, the membrane is then incubated with primary antibody (1:5,000 dilution) in 5% skim milk in TBST overnight at 4° C. […] The membrane is rewashed (TBST; 3×10 min), and the immune-reactive proteins are detected by enhanced chemiluminescence using X-ray film and ECL reagent. The protein bands are quantified by measuring the relative intensity compared to the control using Image J Software (version 4.1.7, NIH, USA).

[4] = tested on: DSS-induced colitis; experiment: Chronic DSS-induced colitis in mice (body weight, DAI, colon length, histology); assay type: in vivo, C57BL/6 mice
Excerpt: 6-week-old male C57BL/6 mice weighing 18-20 g are purchased from the Laboratory Animal Services Center, the Chinese University of Hong Kong. The study protocols are approved by the committee for Care of Laboratory Animals in the School of Chinese Medicine at the Hong Kong Baptist University. The animals are divided into six groups (8-10 each group): control group (mice received drinking water and control diet), DSS-treated group (mice received 2.0% DSS in drinking and control diet), positive control group (mice received 2.0% DSS in drinking and ip, 300 mg/kg/day of sulfasalazine), Pd-Ib treatment groups will be given different dosed of Pd-Ib (mice received 2.0% DSS in drinking and i.p., 30, 60, or 120 mg/kg/day, respectively). As depicted in experiment design shown in FIG. 9, the mice are given tap water for 6 days, and then be divided into 6 groups. DSS is dissolved in distilled water at a concentration of 2% (w/v) and administered to the mice. The first day and the last day of DSS treatment are designated as day 7 and day 11, respectively. Mice are marked and checked daily for body weight. On day 12, body weight, stool consistency, and gross bleeding of each mouse are assessed, and animals showing body weight loss, diarrhea, and bleeding are selected for further analysis. All colitis mice are then interventions once daily for seven days, with eight mice in each group. The DSS model group is administered with tap water as negative control; while sulfasalazine is given as positive control (i.p., 300 mg/kg/day) and Pd-Ib treatment groups are given different doses of Pd-Ib (i.p., 30, 60, or 120 mg/kg/day, respectively). In parallel, a vehicle control group is also set up to receive drinking tap water without DSS throughout the entire experimental period. On day 19, after the mice are killed under anesthesia induced by pentobarbital sodium (i.p., 0.65 g/kg), the length of the large intestine is measured. All portions are stored at −80° C. for biochemical assays. The DAI is determined by scoring changes in the body weight, diarrhea, colon length, and bleeding. In brief, body weight, stool consistency, colon length and bleeding in the stool are monitored daily for determination of DAI. At the end of the experiment, mice are killed, and the colon is dissected from each mouse, and the length of which is measured from the ileocecal junction to the anal verge. The colons are opened longitudinally, gently washed with ice-cold PBS, fixed in 4% paraformaldehyde overnight, and embedded in paraffin. Five-micro-meter sections are stained with hematoxylin/eosin according to a standard procedure to evaluate colonic damage. Colitis is induced in all groups except the control group. Pd-Ib and sulfasalazine are administered to mice from day 6 to day 12. The change in body weight is taken as the difference between the body weight before induction of colitis and that immediately before sacrifice on day 13. The DAI score is determined by combining scores of (i) body weight loss, (ii) stool consistency, and (iii) stool bleeding. On day 13, the mice are sacrificed, and the colon lengths are measured. Data are expressed as mean±SEM, n=8 (^###p<0.001, compared with the control group; *p<0.05, **p<0.01, ***p<0.001, compared with DSS model group).

In the case of `C/C=C(\C)C(=O)OC1C(=O)c2c(ccc3ccc(=O)oc23)OC1(C)C` (single isomer, unassigned; (+)) [Pd-Ib, (+)-3′-Angeloyloxy-4′-keto-3′,4′-dihydroseselin], the “production of TNF-α in colon tissue” value [1] is reported as “greatly reduces the production”, the “production of IL-6 in colon tissue” value [2] is reported as “greatly reduces the production” and the COX-2 protein level [3] is reported as “strongly down-regulates”. For the same compound, the body weight loss ([4]; 30 mg/kg/day) was “mildly effective in preventing body weight loss”, the body weight loss ([4]; 60 mg/kg/day) was “mildly effective in preventing body weight loss” and the body weight loss ([4]; 120 mg/kg/day, compared with DSS model group after 10 days (p<0.05)) was “recover the body weight loss significantly”. The DAI score ([4]; 120 mg/kg/day, versus untreated mice (p<0.05)) was “significantly lower”, the “shortening of colon length” value ([4]; 30, 60, 120 mg/kg/day (p<0.05, p<0.001)) was “rectified after administration with Pd-Ib at indicated concentration levels in a dose-dependent manner” and the “histological manifestation of colon tissue sections” value ([4]; 30, 60, 120 mg/kg/day for seven days, compared with DSS group) was “far fewer infiltrating cells, a significantly lower degree of mucosal injury, and less edema”.

Reference: US9408828B2, “(+)-3′-angeloyloxy-4′-keto-3′,4′-dihydroseselin for treating inflammation” (Hong Kong Baptist University, priority 2014, dated 2016)
